# Reference: US12097177B2, “Therapeutic method for cat with chronic kidney disease” (Toray Industries, Inc., priority 2021, dated 2024)
# Read-outs that look alike come from different tables or passages of the source.
# Legend:
# cats with CKD [1] = assay: Retrospective observation study: period before kidney death (serum creatinine higher than 10.0 mg/dL), BPS therapy vs No BPS therapy; type: in vivo, cat; settings: for 3-year kidney survival rate: cats with CKD; for average period before kidney death: Kaplan-Meier
# Experimental: Based on the drug prescription records, cats were divided into two groups: a BPS therapy group consisting of 73 cats; and a BPS therapy-free group consisting of 126 cats.
# In Example 3, the periods before kidney death were compared and analyzed retrospectively. The timing of kidney death was determined with reference to the guidelines on acute kidney insufficiency from the International Renal Interest Society. On the basis of the statement such that “a patient may die within 5 to 10 days despite appropriate conservative therapy without kidney replacement therapy if serum creatinine is higher than 10.0 mg/dL,” specifically, kidney death was determined when serum creatinine of higher than 10.0 mg/dL was recorded in the serum creatinine test. By designating kidney death as the outcome, the start date of treatment as the point of origin for the cats in the BPS therapy group, and the start date of observation as the point of origin for the cats in the No BPS therapy group, the periods (months) before the outcome was observed were recorded. In analysis, the 3-year kidney survival rates (%) of the BPS therapy group and of the No BPS therapy group, the standard errors thereof, the 95% confidence intervals, and the comparison of the 3-year kidney survival rates (%) between the groups were calculated. […] Differences in the kidney survival rates were assessed by the log rank test, the Cochran-Mantel-Haenszel test, by setting significant level at a two-tailed P-value of <0.05.
# Based on the drug prescription records, cats were divided into two groups: a BPS therapy group consisting of 37 cats; and a BPS therapy-free group consisting of 332 cats.
# In Comparative Example 2, the periods before kidney death were compared and analyzed retrospectively. The timing of kidney death was determined with reference to the guidelines on acute kidney insufficiency from the International Renal Interest Society. On the basis of the statement such that “a patient may die within 5 to 10 days despite appropriate conservative therapy without kidney replacement therapy if serum creatinine is higher than 10.0 mg/dL,” specifically, kidney death was determined when serum creatinine of higher than 10.0 mg/dL was recorded in the serum creatinine test. By designating kidney death as the outcome, the start date of treatment as the point of origin for the cats in the BPS therapy group, and the start date of observation as the point of origin for the cats in the No BPS therapy group, the periods (months) before the outcome was observed were recorded. In analysis, the 3-year kidney survival rates (%) of the BPS therapy group and of the No BPS therapy group, the standard errors thereof, the 95% confidence intervals, and the comparison of the 3-year kidney survival rates (%) between the groups were calculated. […] Differences in the kidney survival rates were assessed by the log rank test, the Cochran-Mantel-Haenszel test, by setting significant level at a two-tailed P-value of <0.05.
# [2] = system: cats with chronic renal failure; settings: cited from earlier work; for kidney function: 4 cats
# cats with CKD [3] = settings: 55 μg twice daily for at least 5 months, cited from earlier work
# cats with CKD [4] = settings: 20 to 55 μg twice daily, 2 months to 3 years and 3 months; cited from earlier work
# [5] = system: kidney of rat progressive glomerulonephritis; settings: in vivo; cited from earlier work
# [6] = first study, 26 cats (BPS group 11)
# [7] = later study, 29 cats (BPS group 15)
smiles,measurement,setting,value
"CC#CCC(C)[C@H](O)/C=C/[C@@H]1[C@H]2c3cccc(CCCC(=O)[O-])c3O[C@H]2C[C@H]1O.[Na+] (stereo partly shown) [BPS, Beraprost sodium]",3-year kidney survival rate,cats with CKD [1]; serum creatinine 1.6 to 2.8 mg/dL (stage 2),90.0%
same,3-year kidney survival rate,"cats with CKD [1]; serum creatinine 2.9 to 5.0 mg/dL (stage 3) or higher than 5.0 mg/dL (stage 4), 10.0 mg/dL or lower",77.1%
same,3-year kidney survival rate of BPS therapy group relative to No BPS therapy group,cats with CKD [1]; stage 2,0.95 times
same,average kidney survival period of BPS therapy group relative to No BPS therapy group,cats with CKD [1]; stage 2,0.97 times
same,average period before kidney death,cats with CKD [1]; stage 2,40.8 months
same,effect on kidney death,cats with CKD [1]; stage 2 before initiation of administration,no effects of BPS administration to inhibit kidney death were observed
same,3-year kidney survival rate of BPS therapy group relative to No BPS therapy group,cats with CKD [1]; stage 3 or 4,1.20 times
same,average kidney survival period of BPS therapy group relative to No BPS therapy group,cats with CKD [1]; stage 3 or 4,1.48 times
same,average period before kidney death,cats with CKD [1]; stage 3 or 4,39.2 months
same,effect on kidney death,cats with CKD [1]; stage 3 or 4 before initiation of administration,effects of BPS administration to inhibit kidney death were observed
same,"kidney function (serum creatinine, BUN, other indicators) and clinical symptoms",[2]; 150 μg twice daily for 6 months,an improvement in kidney function
same,kidney function,"[2]; serum creatinine 1.6 to 2.4 mg/dL (mild), 150 μg twice daily for 6 months",improved kidney function was observed in all of the 4 subject cats
same,kidney function,"[2]; serum creatinine 2.4 to 4.0 mg/dL (moderate), 150 μg twice daily for 6 months","improved kidney function was observed in the 2 subject cats, and retained kidney function was observed in other 2 cats"
same,kidney function,"[2]; serum creatinine higher than 4.0 mg/dL (severe), 150 μg twice daily for 6 months","improved kidney function was observed in a cat, and temporary improvement, followed by impairment, was observed in other 3 cats"
same,uremia,[2]; cat with uremia caused by chronic renal failure (WO '668),improved uremia
same,recovery from chronic renal failure,"[2]; mild chronic renal failure, serum creatinine 1.4 to 2.0 mg/dL, 150 μg twice daily for 6 months",recovery from chronic renal failure was observed in 2 cats
same,effect of improving the survival rate vs renin-angiotensin system inhibitor group,cats with CKD [3]; [6],higher than those in the renin-angiotensin system inhibitor group
same,effect of lowering the risk of 10% body weight loss vs renin-angiotensin system inhibitor group,cats with CKD [3]; [6],higher than those in the renin-angiotensin system inhibitor group
same,effect of improving the survival rate vs renin-angiotensin system inhibitor group,cats with CKD [3]; [7],no effects of improving the survival rate were observed
same,effect of lowering the risk of 10% body weight loss vs renin-angiotensin system inhibitor group,cats with CKD [3]; [7],effects of lowering the risk of 10% body weight loss were observed
same,clinical symptoms and kidney function,cats with CKD [4],stabilized clinical symptoms and maintained kidney function
same,pharmacological activity on renal microvascular network,[5],improving microvascular network failure of kidney tissue
